# Marks after values point to notes of the source that are not given here. Positions of bridges follow the written chain, without caps; N, C: chain ends. Residues, ends and D or L forms follow the SMILES beside them.
# Tests used:
# Type in all cases: cell-based
# Escherichia coli ML35 [1] = experiment: Agar diffusion assay
# Protocol: (§1) The purified chromatographic peaks were screened for antibacterial activity against Escherichia coli ML35 and Staphylococcus aureus 502a. Briefly, antibacterial activity was screened with an agar diffusion assay using lyophilized samples of HPLC fractions dissolved in 5 μl of 0.01% acetic acid as described by Lehrer et al., J. Immunol. Methods 137:167-173 (1991)).
# (§2) Agar diffusion assays and microbicidal suspension assays were used to examine the activity of theta defensin against Staphylococcus aureus 502A, Escherichia coli ML35, Listeria monocytogenes, and Cryptococcus neoformans.
# [2] = tested on: Staphylococcus aureus 502a; experiment: Agar diffusion assay
# Protocol: as §1, §2
# [3] = tested on: Salmonella typhimurium, PhoP^−; experiment: Microbicidal suspension assay, killing quantified by colony counts; conditions: 2 hr, 10 mM PIPES, pH 7.4, 5 mM glucose; FIG. 9
# Candida albicans = experiment: as above
# [4] = tested on: Cryptococcus neoformans 271a; experiment: as above; conditions: for % killed: RTD-1 10 mg/ml, 2 h, 37 C.
# [5] = tested on: Staphylococcus aureus 502a; experiment: as above; conditions: for % killed: 37 C.
# Protocol: Killing was quantified by colony counts.
# Additional antimicrobial assays were conducted on other microbial organisms. […] In FIG. […] Killing was quantified by colony counts. […] The limit of detection (1 colony per plate) was equal to 1×10^3 colony forming units in the incubation mixture.
# It has been proposed that salt sensitivity of airway defensins underlies the susceptibility of cystic fibrosis patients to pulmonary infections.
# (§3) An acyclic version of theta defensin was also tested for antimicrobial activity. […] Killing activity was quantified by colony counts after 18 hrs.
# (§4) The microbicidal activity in the presence of physiological salt concentrations was tested against various microorganisms in various buffers.
# Cryptococcus neoformans = experiment: Agar diffusion assay; conditions: 10, 30, 100 or 300 μg/ml; agar seeded with 1×10^6 colony forming units
# Excerpt: as §2
# Listeria monocytogenes = experiment: Agar diffusion assay; conditions: 10, 30, 100 or 300 μg/ml; agar seeded with 1×10^6 colony forming units
# Excerpt: as §2
# Escherichia coli ML35 [6] = experiment: Microbicidal suspension assay, killing quantified by colony counts; conditions: for % killed: 2 h, 37 C.
# Protocol: Additional antimicrobial assays were conducted on other microbial organisms. […] In FIG. 9A, S. aureus 502a was incubated with increasing concentrations of natural or synthetic peptide for 30 min at 37° C. in 10 mM PIPES, pH 7.4, containing 5 mM glucose. Killing was quantified by colony counts. […] The limit of detection (1 colony per plate) was equal to 1×10^3 colony forming units in the incubation mixture.
# as §3, §4
# [7] = tested on: Listeria monocytogenes EDG; experiment: as above; conditions: for % killed: RTD-1 10 mg/ml, 2 h, 37 C.
# [8] = 10, 30, 100 or 300 μg/ml, agar seeded with 1×10^6 colony forming units
# [9] = 2 hr, 10 mM PIPES, pH 7.4, 5 mM glucose, FIG. 9
# [10] = 10 mM PIPES, pH 7.4, 5 mM glucose, 150 mM NaCl
structure (smiles),measurement,setting,value
"CC[C@H](C)[C@@H]1NC(=O)[C@@H]2CSSC[C@H](NC(=O)[C@H](CCCNC(=N)N)NC(=O)[C@@H]3CSSC[C@H](NC1=O)C(=O)N[C@@H]([C@@H](C)O)C(=O)N[C@@H](CCCNC(=N)N)C(=O)NCC(=O)N[C@@H](Cc1ccccc1)C(=O)N3)C(=O)N[C@@H](CC(C)C)C(=O)N[C@H]1CSSC[C@H](NC(=O)[C@H](C(C)C)NC(=O)CNC(=O)[C@H](CCCNC(=N)N)NC(=O)[C@H](CCCNC(=N)N)NC1=O)C(=O)N[C@@H](CCCNC(=N)N)C(=O)N2 [RTD-1] (cyclo(GFCRCLCRRGVCRCICTR); disulfide 3-16, 5-14, 7-12)",zone of inhibition,Escherichia coli ML35 [1]; [8],dose dependent increase
same,antibacterial activity compared with the other leukocyte peptides isolated,Escherichia coli ML35 [1]; screen of purified HPLC peaks,greatest activity
same,zone of inhibition,[2]; [8],dose dependent increase
same,antibacterial activity compared with the other leukocyte peptides isolated,[2]; screen of purified HPLC peaks,greatest activity
same,microbicidal activity (killing),[3],killed
same,microbicidal activity (killing),Candida albicans; [9],killed
same,% killed,"Candida albicans; RTD-1 10 mg/ml, 2 h, 37 C., 10 mM Tris HCl, pH 7.4, 150 mM NaCl",>98%
same,microbicidal activity (killing),[4]; [9],killed
same,% killed,[4]; [10],>99.99%
same,% killed,"[4]; 10 mM Tris-HCl, pH 7.4, 150 mM NaCl",>99.99%
same,effect of NaCl on staphylocidal activity,"[5]; 10 μg/ml peptide, 2 h, NaCl concentrations as high as 150 mM",little effect
same,microbicidal activity (killing),"[5]; 10 mM PIPES, pH 7.4, 5 mM glucose, 37° C., FIG. 9",killed
same,% killed,"[5]; 2 h, 10 mM PIPES, pH 7.4, 5 mM glucose, 150 mM NaCl, 1-2 × 10^6 CFU/ml",>99%
same,% killed,"[5]; 2 h, 10 mM Tris-HCl, pH 7.4, 150 mM NaCl",>99.99%
same,peptide concentration reducing colony counts to below the level of detection,"[5]; 2 h at 37° C. in 10 mM PIPES, pH 7.4",≥ 4 µg/mL
same,% killed,"[5]; RTD-1 25 mg/ml, 2 h, 10 mM Tris-HCl, pH 7.4, 50% human AB serum",>99* %
same,zone of inhibition,Cryptococcus neoformans,dose dependent increase
same,zone of inhibition,Listeria monocytogenes,dose dependent increase
same,microbicidal activity (killing),Escherichia coli ML35 [6]; [9],killed
same,% killed,"Escherichia coli ML35 [6]; RTD-1 25 mg/ml, 10 mM Tris-HCl, pH 7.4, 25% human AB serum",>99* %
same,% killed,"Escherichia coli ML35 [6]; RTD-1, 10 mM PIPES, pH 7.4, 5 mM glucose, 150 mM NaCl",>99%
same,% killed,"Escherichia coli ML35 [6]; RTD-1, 10 mM Tris-HCl, pH 7.4, 150 mM NaCl",>99.99%
same,activity of cyclic form relative to acyclic form,Escherichia coli ML35 [6]; gram negative bacteria (E. coli),about three times more active
same,microbicidal activity (killing),[7]; [9],killed
same,% killed,[7]; [10],>99.99%
same,% killed,"[7]; 10 mM Tris HCl, pH 7.4, 150 mM NaCl",>99.99%

# — patent US7399823B1, “Antimicrobial theta defensins and methods of using same” (The Regents of the University of California, priority 2000, dated 2008)
